Measurements reported in patent EP1343508B1, “USE OF AN OESTROGEN IN THE MANUFACTURE OF A COMPOSITION CONTAINING OESTROGEN FOR THE TREATMENT OF ATROPHIC VAGINITIS” (Novo Nordisk Femcare AG, priority 2000, dated 2002).
Marks after values point to notes of the source that are not given here.

Experiments:
FSH = assay: Serum FSH concentration (immunoradiometric assay), Example 2; type: in vivo, postmenopausal women; settings: 25 µg E2; Week 12
Experimental: Maturation values of vaginal mucosal cells were assessed as an indicator of changes in the condition of the vaginal mucosa in response to treatment.
(§1) After the screening visit, patients received no study treatment during the 4-week run-in period prior to the baseline visit. […] The vaginal tablets were identical in appearance. Patients inserted 1 tablet intravaginally, once daily for the initial 2 weeks of the study and then twice per week (Sunday and Thursday) for the remaining 10 weeks. Patients were instructed to use their medication at a consistent time each day, preferably in the morning.
(§2) Upon presentation to the clinic for each visit, a vaginal cytology specimen was obtained. Patients then inserted the tablets. […] The blood samples obtained at 30 minutes before insertion, and at 6, 12, and 24 hours after insertion were also used to determine the FSH concentration via immunoradiometric assay.
Data for area under the curve and maximal concentration were converted to a logarithmic scale, and changes from first dose (at the baseline visit) in the logarithmic values were estimated using 95% confidence intervals derived from paired t-tests. […] Differences within treatment groups in FSH concentration were determined using the Wilcoxon signed rank test based on changes from baseline in mean concentrations at weeks 2 and 12. […]

endometrium = assay: Endometrial biopsy at end of study, Example 3; type: in vivo, postmenopausal women; settings: Week 12, N = 32
Experimental: (§3) Efficacy was measured with composite scores of vaginal symptoms (dryness, soreness, and irritation) and vaginal health (secretions, epithelial integrity, surface thickness, and pH). Vaginal and urethral cytology analyses were also performed, and the vaginal maturation value was determined. Safety assessments included endometrial biopsies.
(§4) Vaginal and urethral cell samples were harvested and analyzed by independent cytologists to determine the percentages of parabasal, intermediate, and superficial cells. Maturation values were calculated according to the following equation: maturation value = 1.0 × [superficial cells, %] + 0.5 × [intermediate cells, %] [formula] Endometrial biopsies were performed at the end of the study in patients with intact uteri. The number of patients with abnormal biopsies was compared between treatment groups.

vaginal mucosa = assay: Vaginal maturation value, Example 3; type: in vivo, postmenopausal women
Experimental: as §3
(§5) All vaginal tablets were identical in appearance. Patients inserted 1 tablet daily for 14 days. Thereafter, patients inserted 1 tablet twice per week (Sunday and Thursday) for the remainder of the trial. Patients were to insert the tablets at the same time each day (preferably at bedtime). Patients were evaluated for efficacy and safety at Week - 4 (screening), Week 0 (baseline), and Weeks 2, 7, and 12.
as §4

[1] = tested on: superficial vaginal and urethral cells; assay: Superficial vaginal and urethral cells taken together, subjects per category, Example 3; type: in vivo, postmenopausal women; settings: for percentage of subjects with both superficial vaginal and urethral cells less than or equal to 5% / subjects with percentages of both superficial vaginal and urethral cells less than or equal to 5%: Week 0; for percentage of subjects with increases in percentages of both superficial vaginal and urethral cells / subjects with increases in percentages of both superficial vaginal and urethral cells: Week 12
Experimental: as §3, §5, §4

[2] = 24-hour serum estradiol profile after vaginal tablet insertion (radioimmunoassay), Example 2; type: in vivo, postmenopausal women; settings: for patients with areas under the curve below 600 pg hr/mL at both time points / percentage of patients with areas under the curve below 600 pg hr/mL at both time points: weeks 0 and 12; for Maximal concentration / Time to maximal concentration: mean ± SD
Source text: as §1, §2
Data for area under the curve and maximal concentration were converted to a logarithmic scale, and changes from first dose (at the baseline visit) in the logarithmic values were estimated using 95% confidence intervals derived from paired t-tests. […] Differences within treatment groups in FSH concentration were determined using the Wilcoxon signed rank test based on changes from baseline in mean concentrations at weeks 2 and 12. Mean concentrations were defined as the average concentrations obtained at 30 minutes before tablet insertion and 6, 12, and 24 hours after insertion.

[3] = tested on: postmenopausal women with atrophic vaginitis; assay: Patients with vaginal pH below 5.5, Example 3; type: in vivo
Experimental: Efficacy was measured with composite scores of vaginal symptoms (dryness, soreness, and irritation) and vaginal health (secretions, epithelial integrity, surface thickness, and pH). Vaginal and urethral cytology analyses were also performed, and the vaginal maturation value was determined. Safety assessments included endometrial biopsies. […] All vaginal tablets were identical in appearance. Patients inserted 1 tablet daily for 14 days. Thereafter, patients inserted 1 tablet twice per week (Sunday and Thursday) for the remainder of the trial. Patients were to insert the tablets at the same time each day (preferably at bedtime). Patients were evaluated for efficacy and safety at Week - 4 (screening), Week 0 (baseline), and Weeks 2, 7, and 12. Investigators used a severity scale of none, mild, moderate, or severe to assess vaginal health characteristics (secretions, epithelial integrity, surface thickness, color, and pH). Severity categories were assigned ascending scores from 0 (none) to 3 (severe) for analysis. To avoid multiple endpoint issues, composite scores were defined. A composite score for vaginal health was defined as the average of the individual vaginal health characteristic scores. The composite score and the change from baseline for the composite score were examined at each time point. Differences within and between treatment groups were analyzed using an analysis of variance (ANOVA). […] Efficacy was measured with composite scores of vaginal symptoms (dryness, soreness, and irritation) and vaginal health (secretions, epithelial integrity, surface thickness, and pH). Vaginal and urethral cytology analyses were also performed, and the vaginal maturation value was determined. Safety assessments included endometrial biopsies. […] All vaginal tablets were identical in appearance. Patients inserted 1 tablet daily for 14 days. Thereafter, patients inserted 1 tablet twice per week (Sunday and Thursday) for the remainder of the trial. Patients were to insert the tablets at the same time each day (preferably at bedtime). Patients were evaluated for efficacy and safety at Week - 4 (screening), Week 0 (baseline), and Weeks 2, 7, and 12. Investigators used a severity scale of none, mild, moderate, or severe to assess vaginal health characteristics (secretions, epithelial integrity, surface thickness, color, and pH). Severity categories were assigned ascending scores from 0 (none) to 3 (severe) for analysis. To avoid multiple endpoint issues, composite scores were defined. A composite score for vaginal health was defined as the average of the individual vaginal health characteristic scores. The composite score and the change from baseline for the composite score were examined at each time point. Differences within and between treatment groups were analyzed using an analysis of variance (ANOVA).

[4] = each treatment group (25 or 10 µg E2), Week 0
[5] = 10 µg E2 vaginal tablet, Week 0
[6] = 10 µg E2 vaginal tablet, Week 12
[7] = 25 µg E2 vaginal tablet, Week 0
[8] = 25 µg E2 vaginal tablet, Week 12

Endometrial Biopsy Result Abnormal, percentage of patients (endometrium; 10 µg E2): 0.0% | Endometrial Biopsy Result Normal, number of patients (endometrium; 10 µg E2): 25 | Endometrial Biopsy Result Normal, percentage of patients (endometrium; 10 µg E2): 78.1% | Endometrial Biopsy Result Other, number of patients (endometrium; 10 µg E2): 7 | Endometrial Biopsy Result Other, percentage of patients (endometrium; 10 µg E2): 21.9% | Endometrial Biopsy Result Abnormal, number of patients (endometrium; 10 µg E2, hyperplasia or carcinoma): 0 | Endometrial Biopsy Result Abnormal, percentage of patients (endometrium; 25 µg E2): 3.1% | Endometrial Biopsy Result Normal, number of patients (endometrium; 25 µg E2): 28 | Endometrial Biopsy Result Normal, percentage of patients (endometrium; 25 µg E2): 87.5% | Endometrial Biopsy Result Other, number of patients (endometrium; 25 µg E2): 3 | Endometrial Biopsy Result Other, percentage of patients (endometrium; 25 µg E2): 9.4% | patients with areas under the curve below 600 pg hr/mL at both time points ([2]; 10 µg E2): 22 patients | percentage of patients with areas under the curve below 600 pg hr/mL at both time points ([2]; 10 µg E2): 96% | Serum concentration over 24 hours [2, 5]: 0.015 ng/mL | Maximal concentration [2, 5]: 35 ± 17 pg/mL | Area under the curve ([2]; 10 µg E2 vaginal tablet, Week 0, serum E2, mean ± SD): 0.349 ± 0.107 ng·h/mL | Serum concentration over 24 hours [2, 6]: 0.011 ng/mL | Maximal concentration [2, 6]: 22 ± 17 pg/mL | Time to maximal concentration [2, 6]: 10 ± 8 h | Area under the curve ([2]; 10 µg E2 vaginal tablet, Week 12, serum E2, mean ± SD): 0.264 ± 0.12 ng·h/mL | patients with areas under the curve below 600 pg hr/mL at both time points ([2]; 25 µg E2): 14 patients | percentage of patients with areas under the curve below 600 pg hr/mL at both time points ([2]; 25 µg E2): 74% | Serum concentration over 24 hours [2, 7]: 0.022 ng/mL | Time to maximal concentration [2, 7]: 15 ± 9 h | Area under the curve ([2]; 25 µg E2 vaginal tablet, Week 0, repeated Table 2): 538000 ± 265000 ng·h/mL | Area under the curve ([2]; 25 µg E2 vaginal tablet, Week 0, serum E2, mean ± SD): 0.538 ± 0.265 ng·h/mL | Serum concentration over 24 hours [2, 8]: 0.023 ng/mL | Time to maximal concentration [2, 8]: 13 ± 6 h | Area under the curve ([2]; 25 µg E2 vaginal tablet, Week 12, serum E2, mean ± SD): 0.563 ± 0.341 ng·h/mL
Structure (SMILES): C[C@]12CC[C@@H]3c4ccc(O)cc4CC[C@H]3[C@@H]1CC[C@@H]2O [E2, 17β-estradiol]
patients with mean FSH concentrations below 35 mIU/mL (FSH): 3 patients | maturation values (vaginal mucosa; active treatment groups (25 or 10 µg E2), Week 12): approximately 60% | maturation values (vaginal mucosa; [4]): approximately 45% | percentage of subjects with both superficial vaginal and urethral cells less than or equal to 5% ([1]; 10 µg E2): 85% | subjects with percentages of both superficial vaginal and urethral cells less than or equal to 5% ([1]; 10 µg E2): 53 subjects | percentage of subjects with increases in percentages of both superficial vaginal and urethral cells ([1]; 10 µg E2): 71% | subjects with increases in percentages of both superficial vaginal and urethral cells ([1]; 10 µg E2): 44 subjects | percentage of subjects with both superficial vaginal and urethral cells less than or equal to 5% ([1]; 25 µg E2): 81% | subjects with percentages of both superficial vaginal and urethral cells less than or equal to 5% ([1]; 25 µg E2): 57 subjects | percentage of subjects with increases in percentages of both superficial vaginal and urethral cells ([1]; 25 µg E2): 74% | subjects with increases in percentages of both superficial vaginal and urethral cells ([1]; 25 µg E2): 52 subjects | Patients With Vaginal pH Values Below 5.5, (%) ([3]; 10 µg E2, Week 0): (30.3) % | Patients With Vaginal pH Values Below 5.5, n/N ([3]; 10 µg E2, Week 0): 27/89 | Patients With Vaginal pH Values Below 5.5, (%) ([3]; 10 µg E2, Week 2): (79.8)^b % | Patients With Vaginal pH Values Below 5.5, n/N ([3]; 10 µg E2, Week 2): 67/84 | Patients With Vaginal pH Values Below 5.5, (%) ([3]; 10 µg E2, Week 7): (71.3)^c % | Patients With Vaginal pH Values Below 5.5, n/N ([3]; 10 µg E2, Week 7): 57/80 | Patients With Vaginal pH Values Below 5.5, (%) ([3]; 10 µg E2, Week 12): (76.1)^b % | Patients With Vaginal pH Values Below 5.5, n/N ([3]; 10 µg E2, Week 12): 54/71 | Patients With Vaginal pH Values Below 5.5, (%) ([3]; 25 µg E2, Week 0): (34.4) % | Patients With Vaginal pH Values Below 5.5, n/N ([3]; 25 µg E2, Week 0): 31/90 | Patients With Vaginal pH Values Below 5.5, (%) ([3]; 25 µg E2, Week 2): (73.6)^a % | Patients With Vaginal pH Values Below 5.5, n/N ([3]; 25 µg E2, Week 2): 64/87 | Patients With Vaginal pH Values Below 5.5, n/N ([3]; 25 µg E2, Week 7): 71/83 | Patients With Vaginal pH Values Below 5.5, (%) ([3]; 25 µg E2, Week 12): (79.7)^b % | Patients With Vaginal pH Values Below 5.5, n/N ([3]; 25 µg E2, Week 12): 63/79 | percentage of patients with vaginal pH values below 5.5 [3, 4]: approximately 35%
